Data reported in ChEMBL document CHEMBL4033727, “Design, synthesis, in silico and in vitro evaluation of thiophene derivatives: A potent tyrosine phosphatase 1B inhibitor and anticancer activity” (Bioorg Med Chem Lett, 2017).

Legend:
HepG2 = assay: Anticancer activity against human HepG2 cells incubated for 24 hrs by MTT assay; assay type: functional, cell-based; conditions: HepG2, 24 h
MDA-MB-231 = assay: Anticancer activity against human MDA-MB-231 cells incubated for 24 hrs by MTT assay; assay type: functional, cell-based; conditions: MDA-MB-231, 24 h
K562 = assay: Anticancer activity against human K562 cells incubated for 24 hrs by MTT assay; assay type: functional, cell-based; conditions: K562, 24 h
HeLa = assay: Anticancer activity against human HeLa cells incubated for 24 hrs by MTT assay; assay type: functional, cell-based
MCF7 = assay: Anticancer activity against human MCF7 cells incubated for 24 hrs by MTT assay; assay type: functional, cell-based; conditions: MCF7, 24 h
[1] = target: T1, Tyrosine-protein phosphatase non-receptor type 1 (Homo sapiens, UniProt P18031); assay: Inhibition of recombinant PTP1B (unknown origin) using pNPP substrate
T1 sequence (P18031 whole entry): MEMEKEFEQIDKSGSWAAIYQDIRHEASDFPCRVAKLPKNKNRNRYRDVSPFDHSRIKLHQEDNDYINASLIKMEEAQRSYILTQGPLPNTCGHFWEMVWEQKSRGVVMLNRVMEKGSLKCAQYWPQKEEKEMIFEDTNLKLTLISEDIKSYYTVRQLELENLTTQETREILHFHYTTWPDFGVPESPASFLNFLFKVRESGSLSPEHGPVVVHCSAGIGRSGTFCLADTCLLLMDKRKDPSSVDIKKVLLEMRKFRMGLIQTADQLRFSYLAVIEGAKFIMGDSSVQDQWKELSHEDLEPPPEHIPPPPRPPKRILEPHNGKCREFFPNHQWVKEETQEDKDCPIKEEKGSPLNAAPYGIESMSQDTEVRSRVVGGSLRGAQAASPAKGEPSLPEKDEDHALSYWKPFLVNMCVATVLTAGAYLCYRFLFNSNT

HEK293 = assay: Cytotoxicity activity against human HEK293 cells incubated for 24 hrs by MTT assay; assay type: cell-based; conditions: HEK293, 24 h
[2] = Stability in various solvents up to 96 hrs at different temperatures; assay type: physicochemical

| IC50 (HepG2) [µM] | IC50 (MDA-MB-231) [µM] | IC50 (K562) [µM] | IC50 (HeLa) [µM] | IC50 (MCF7) [µM] | IC50 [1] [µM] | Stability [2] | SMILES | IC50 (HEK293) [µM] |
| --- | --- | --- | --- | --- | --- | --- | --- | --- |
| 0.72 | 7.54 | 18.2 | 16.6 | 2.22 | 6.37 |  | COC(=O)c1scc(-c2ccc(NC(=O)c3cccc(OC(F)(F)F)c3)cc2)c1OC |  |
| 23.3 | 7.25 | 12.5 | 23.5 | 1.47 | 7.29 |  | COC(=O)c1scc(-c2ccc(NC(=O)c3ccc(C(F)(F)F)nc3)cc2)c1OC |  |
| 15.3 | > 50 |  | > 50 | 18.6 | 24.3 |  | COC(=O)c1scc(-c2ccc(NC(=O)c3cccs3)cc2)c1OC | > 50 |
| 10.3 | 8.25 | 24.2 | > 50 | 19.2 | 11.3 |  | COC(=O)c1scc(-c2ccc(NC(=O)c3ccccn3)cc2)c1OC |  |
| 28.2 | 19.6 | 9.25 | 16.2 | 22.4 | 16.5 |  | COC(=O)c1scc(-c2ccc(NC(=O)c3ccc(C(F)(F)F)cc3Br)cc2)c1OC | > 50 |
| 10.3 | 10.3 | 8.25 | 16.2 | 10.3 | 12.3 |  | COC(=O)c1scc(-c2ccc(NC(=O)c3ccc(F)c(Cl)n3)cc2)c1OC |  |
| 19.5 | 5.25 | 10.2 | 18.2 | 0.09 | 5.25 | Stable | COC(=O)c1scc(-c2ccc(NC(=O)c3ccc4ccccc4c3)cc2)c1OC |  |
| 32.5 | 24.6 | 6.13 | 19.3 | 26.2 | 12.3 |  | COC(=O)c1scc(-c2ccc(NC(=O)c3cccc(C(F)(F)F)c3)cc2)c1OC |  |
| 24.6 | 18.3 | 9.26 | 14.4 | 24.6 | 14.8 |  | COC(=O)c1scc(-c2ccc(NC(=O)c3ccc(C(F)(F)F)cc3)cc2)c1OC | 48.3 |
| 22.5 | 28.5 |  |  | 9.54 | 12.5 |  | COC(=O)c1scc(-c2ccc(NC(=O)c3ccc(C#N)nc3)cc2)c1OC |  |
| 9.53 | 8.36 | 12.6 | 18.3 | 5.46 | 11.2 |  | COC(=O)c1scc(-c2ccc(NC(=O)c3ncc(Cl)cc3Br)cc2)c1OC | > 50 |
|  | 16.5 | 35.6 |  | 22.5 | 20.6 |  | COC(=O)c1scc(-c2ccc(NC(=O)c3cc(I)ccc3F)cc2)c1OC | 45.2 |
| > 50 | 15.3 | 18.2 | 24.4 | 5.25 | 22.3 |  | COC(=O)c1scc(-c2ccc(NC(=O)c3ccc(OC)nc3)cc2)c1OC | > 50 |
| 13.5 | 14.2 | 9.56 |  | 12.2 | 16.3 |  | COC(=O)c1scc(-c2ccc(NC(=O)Cc3c(Cl)cccc3Cl)cc2)c1OC |  |
| 16.5 | 8.24 | 14.7 | 12.7 | 12.2 | 14.5 |  | COC(=O)c1scc(-c2ccc(NC(=O)c3cccc(I)c3)cc2)c1OC | 42.7 |
|  | 0.6 | 0.07 | 0.37 | 0.41 |  |  | COc1cccc2c1C(=O)c1c(O)c3c(c(O)c1C2=O)C[C@@](O)(C(=O)CO)C[C@@H]3O[C@H]1C[C@H](N)[C@H](O)[C@H](C)O1 [DOXORUBICIN] |  |
